Measured values published in patent US5002959A, “BU-4146T antibiotic” (Bristol-Myers Squibb Company, priority 1989, dated 1991).
Values after ≈ are worked out from the molar mass of the structure shown. Where two headings read alike, the source gives them in different places.

Legend:
[1] = test system: B16-F10 (murine melanoma) cells; assay: In vitro cytotoxicity; format: cell-based; conditions: Mus musculus; B16-F10, 72 hours
Procedure: (§1) B16-FIO, Moser and HCT-116 cells were harvested and implanted into wells of 96-well microtiter plate with test materials at the inoculum sizes of 3×10^4, 6×10^4 and 6×10^4 cell/ml, respectively. They were incubated at 37° C. in a humidified atmosphere of 5% carbon dioxide and 95% air for 72 hours. The cytotoxicity against the tumor cells was determined colorimetrically at 540 nm after staining viable cells.

[2] = test system: Moser (human colorectal carcinoma) cells; assay: In vitro cytotoxicity; format: cell-based; conditions: 72 hours
Procedure: as §1

[3] = test system: HCT-116 (human colon carcinoma) cells; assay: In vitro cytotoxicity; format: cell-based; conditions: HCT-116, 72 hours
Procedure: as §1

[4] = test system: RNA synthesis in B16-F10 melanoma cells; assay: Inhibition of macromolecule synthesis in B16-F10 melanoma cells: RNA; format: cell-based, murine; conditions: Mus musculus, 14C-uridine, 4 hours
Procedure: (§2) Inhibitory effects of BU-4146T on the macromolecule (DNA, RNA and protein) synthesis were determined in cultured B16-FlO melanoma cells. B16-FlO cells (10^5 cells/ml) were incubated with the compound at 37° C. for 3.5 hours (for DNA synthesis) or 4 hours (for RNA and protein synthesis). Labelled presursor, ^3 H-thymidine, ^14 C-uridine or ^3 H-leucine was added to the culture and further incubated for 30 minutes (for DNA) or 60 minutes (for RNA and protein). After washing with chilled 5% trichloroacetic acid solution, the radio activity incorporated into the acid-insoluble fraction of the tumor cells was determined by a liquid scintillation counter.

[5] = test system: Trichophyton mentagrophytes; assay: Antifungal MIC by serial agar dilution method; format: cell-based
Procedure: (§3) The minimum inhibitory concentrations (MICs) of BU-4146T were determined against various bacteria and fungi by the serial agar dilution method. Nutrient agar (Eiken) was used for bacteria and Sabouraud dextrose agar (Difco) for fungi. The inoculum size was adjusted to 10^2 -10^4 cfu/ml for bacteria and 10^3 cfu/ml for fungi.

Fusarium moniliforme = assay: Antifungal MIC by serial agar dilution method; format: cell-based; conditions: Fusarium verticillioides; strain A2284
Procedure: as §3

Aspergillus fumigatus = assay: Antifungal MIC by serial agar dilution method; format: cell-based
Procedure: as §3

Cryptococus neoformans = assay: Antifungal MIC by serial agar dilution method; format: cell-based; conditions: Cryptococcus neoformans
Procedure: as §3

Sporothrix schenckii = assay: Antifungal MIC by serial agar dilution method; format: cell-based; conditions: strain IF08158
Procedure: as §3

Candida albicans = assay: Antifungal MIC by serial agar dilution method; format: cell-based
Procedure: as §3

Aspergillus flavus = assay: Antifungal MIC by serial agar dilution method; format: cell-based; conditions: strain FA21436
Procedure: as §3

Petriellidium boydii = assay: Antifungal MIC by serial agar dilution method; format: cell-based; conditions: Scedosporium boydii; strain IF08078
Procedure: as §3

Blastomyces dermatidis = assay: Antifungal MIC by serial agar dilution method; format: cell-based; conditions: strain IF08144
Procedure: as §3

Mucor spinosus = assay: Antifungal MIC by serial agar dilution method; format: cell-based; conditions: strain IF05317
Procedure: as §3

[6] = test system: DNA synthesis in B16-F10 melanoma cells; assay: Inhibition of macromolecule synthesis in B16-F10 melanoma cells: DNA; format: cell-based, murine; conditions: for IC50: Mus musculus, B16-F10, 3H-thymidine, 3.5 hours
Procedure: as §2

Piricularia oryzae = assay: microbe, parasite or virus in culture; format: cell-based
Gram-positive bacteria = assay: Antibacterial activity by serial agar dilution method; format: cell-based; conditions: at 100 mcg/ml
Procedure: as §3

Gram-negative bacteria = assay: as above; format: cell-based; conditions: at 100 mcg/ml
Procedure: as §3

Solubility = format: physicochemical
fungi = assay: Antifungal activity as a whole (serial agar dilution); format: cell-based; conditions: versus streptimidone
Procedure: as §3

[7] = test system: murine and human tumor cells (B16-F10, Moser, HCT-116); assay: In vitro cytotoxicity, comparison over the tumor cell lines; format: cell-based; conditions: versus mitomycin C; approximately
Procedure: as §1

[8] = test system: protein synthesis in B16-F10 melanoma cells; assay: Inhibition of macromolecule synthesis in B16-F10 melanoma cells: protein; format: cell-based, murine; conditions: Mus musculus, 3H-leucine, 4 hours
Procedure: as §2

[9] = Cytotoxicity of hydrogenated derivative; format: cell-based
[10] = Trichophyton mentagrophytes, strain D155, read-out: MIC

SMILES	IC50 [4]	MIC [5, 10]	MIC ([5]; strain No. 4329)	MIC (Fusarium moniliforme)	MIC (Aspergillus fumigatus; strain IAM2034)	MIC (Aspergillus fumigatus; strain IAM2530)	MIC (Cryptococus neoformans; strain D49)	MIC (Cryptococus neoformans; strain IAM4514)	MIC (Sporothrix schenckii)	MIC (Candida albicans; strain A9540)	MIC (Candida albicans; strain IAM4888)	MIC (Aspergillus flavus)	MIC (Petriellidium boydii)	MIC (Blastomyces dermatidis)	MIC (Mucor spinosus)	IC50 [6]	IC50 [8]	other results
C/C(=C\C(C)C(=O)CC(O)CC1CC(=O)NC(=O)C1)C1OC(=O)/C=C/CC/C=C/C=C\C1C (stereo not shown) [BU-4146T]	4.2 µg/mL (≈ 9.18 µM)	100 µg/mL (≈ 219 µM)	100 µg/mL (≈ 219 µM)	0.8 µg/mL (≈ 1.75 µM)	1.6 µg/mL (≈ 3.5 µM)	0.8 µg/mL (≈ 1.75 µM)	3.1 µg/mL (≈ 6.77 µM)	3.1 µg/mL (≈ 6.77 µM)	100 µg/mL (≈ 219 µM)	> 100 µg/mL	> 100 µg/mL	3.1 µg/mL (≈ 6.77 µM)	3.1 µg/mL (≈ 6.77 µM)	12.5 µg/mL (≈ 27.3 µM)	1.6 µg/mL (≈ 3.5 µM)	0.023 µg/mL (≈ 0.0503 µM)	0.024 µg/mL (≈ 0.0525 µM)	IC50 [1]: 0.03 µg/mL (≈ 0.0656 µM); IC50 [2]: 0.047 µg/mL (≈ 0.103 µM); IC50 [3]: 0.014 µg/mL (≈ 0.0306 µM); potency in DNA and protein synthesis, times higher than in RNA synthesis ([6]; in terms of IC50, DNA and protein versus RNA): ~200 times; MIC (Piricularia oryzae): 3.1 µg/mL (≈ 6.77 µM); inhibitory activity against Gram-positive bacteria (Gram-positive bacteria): did not show inhibitory activity; inhibitory activity against Gram-negative bacteria (Gram-negative bacteria): did not show inhibitory activity; solubility in n-hexane (Solubility; n-hexane): practically insoluble; solubility in acetonitrile, n-butanol, methanol, ethyl acetate, chloroform and dimethyl sulfoxide (Solubility; organic solvents): readily soluble; solubility in water (Solubility; water): practically insoluble; antifungal activity, times more potent than streptimidone (fungi): 30-100 times; IC50 values, times superior to those of mitomycin C [7]: 20-60 times
CO[C@@]12[C@H](COC(N)=O)C3=C(C(=O)C(C)=C(N)C3=O)N1C[C@@H]1N[C@@H]12 [Mitomycin C, reference compound]	11 µg/mL (≈ 32.9 µM)															1.6 µg/mL (≈ 4.79 µM)	60 µg/mL (≈ 179 µM)	
C=C/C(C)=C/[C@H](C)C(=O)C[C@H](O)CC1CC(=O)NC(=O)C1 [Streptimidone, reference compound]		> 100 µg/mL	> 100 µg/mL	50 µg/mL (≈ 170 µM)	> 100 µg/mL	> 100 µg/mL	50 µg/mL (≈ 170 µM)	50 µg/mL (≈ 170 µM)	> 100 µg/mL	> 100 µg/mL	> 100 µg/mL	> 100 µg/mL	> 100 µg/mL	> 100 µg/mL	> 100 µg/mL			MIC (Piricularia oryzae; read-out: MIC): > 100 µg/mL
C/C(=C\C(C)C(=O)CC(O)CC1CC(=O)NC(=O)C1)C1OC(=O)CCCCCCCCC1C (stereo not shown) [hexahydro-BU-4146T]																		cytotoxicity ([9]; in words): weak cytotoxicity; cytotoxicity, times weaker than that of BU-4146T ([9]; versus BU-4146T): about one hundred
